What was measured:
Alphafetoprotein (AFP) = assay: AFP ELISA assay in MHCC97H cells; format: cell-based, human; conditions: 1.3 μM, 72 hours, vs vehicle control
Method: MHCC97H cells were seeded at a density of 500,000 cells/2 mL/well on a 6 well culture plate and incubated overnight at 37° C. in a humidified CO2 incubator. Cells were then treated with 1.3 μM milciclib or vehicle in DMEM/F12+2% FBS for 72 hours. Subsequently, cells were lysed in RIPA buffer, the supernatant was collected and used to perform ELISA assay as per the manufacturer's instructions. In orthotopic HCC mouse model, levels of serum marker alpha-fetoprotein (AFP) were determined on day 0, 6, 12, 18, 24, 30, 36, 42 and 48 using High Range AFP kit as per manufacturer's instructions.

[1] = system: MHCC97H human liver cells; assay: Orthotopic tumor induction in athymic nude mice; format: in vivo; conditions: oral, once daily day 12 to 47; milciclib 30 mg/kg/day, sorafenib 20 mg/kg/day; vs vehicle
Method: Mouse experiments were performed in accordance with the guidelines approved by the Institutional Animal Care and use committee of Washington Biotechnology Inc (Baltimore, Md.) where the studies were conducted. (FIG. 66) Test agents were dissolved in chremophor/ethanol (1:1) to make a 5× stock solution and diluted in water when used. MHCC97H human liver cells (5×106) in PBS were mixed with 20% Matrigel and then inoculated orthotopically into the right flank of female Balb/c nude mice. Seven days after cell inoculation, the mice were randomly allocated to either the treatment group (n=12) or the control group (n=12) based on the levels of AFP. The daily animal inspection was conducted for general appearance and tumor growth. Milciclib (30 mg/Kg), sorafenib (20 mg/Kg), milciclib+sorafenib or the corresponding vehicle was given orally to individual mice once daily from day 12 until day 47. After completion of the treatment at day 48, animals were euthanized and blood, liver tissues and tumor were collected for gene expression and mechanistic assays. Liver tumors developed 100% of animals challenged with orthotopic MHCC97H injection.

MHCC97H cells = assay: IC50 values by cell proliferation assay (WST-1); format: cell-based, human; conditions: Homo sapiens, MHCC97H, 72 h, individual inhibitor, 72 hours, WST-1; read-out: MHCC97H IC50
Method: MHCC97H and MHCC97L (highly metastatic hepatocellular carcinoma cell line, derived from humans)
Cells (MHCC97H, MHCC97L, and HepG2.2.15) were cultured for 24 hours in 2% FBS and then were trypsinized, resuspended in 2% FBS and seeded in a rat collagen coated 96-well plate at a density of 10,000 cells/100 μl/well, a day before the experiment and cultured at 37° C. in 5% CO2. The cells were treated the next day with milciclib, sorafenib, regorafenib, sunitinib, and lenvatinib, individually or in combination in DMEM/F12+2% FBS+for 72 hours prior to the addition of WST-1 reagent. About 100 μL media was added to control well. […] To determine cell proliferation by the colorimetric test, 10 μL of WST-1 reagent (Sigma Aldrich, St Louis, Mo.) was added in 100 μL cell culture media and incubated for 2 hours in 5% CO2 at 37° C. At the end of incubation period, the plate was placed on a plate shaker for 1 minute and was monitored using a spectrophotometer at an optical density of 450 nm with a reference wavelength of 600 nm using Tecan F200 and iControl software. IC50 values were determined using GraphPad Prism (GraphPad Software, La Jolla, Calif.). Each experiment was performed in duplicate and repeated 2 times.

Structure (SMILES): CNC(=O)c1nn(C)c2c1C(C)(C)Cc1cnc(Nc3ccc(N4CCN(C)CC4)cc3)nc1-2 [MILCICLIB, N,1,4,4-tetramethyl-8-((4-(4-methylpiperazin-1-yl)phenyl)amino)-4,5-dihydro-1H-pyrazolo[4,3-h]quinazoline-3-carboxamide]
- AFP levels (Alphafetoprotein (AFP)): Appreciably lower
- reducing tumor growth [1]: 20%
- IC50 (MHCC97H cells): 1300 nM
